Experimental data: US12137885B2, “Bodily fluid collection device” (SENJU PHARMACEUTICAL CO., LTD., priority 2020, dated 2024)
Counter-ions that a name gives are not always drawn.

Experiment: Timolol concentration of the aqueous humor after ophthalmic administration, collected with the bodily fluid-collecting device (LC/MS/MS)
Assay type: in vivo
Conditions: rabbit; single 40 μl ophthalmic dose of 0.5% timolol maleate sustained ophthalmic solution; aqueous humor 4 hours after administration; Method 1 (0.25, 0.5, 1, 2, 4 h) vs Method 2 (4 h only); FIG. 6
Experimental: Using a micropipette, a 0.5% timolol maleate sustained ophthalmic solution (produced by Santen Pharmaceutical Co., Ltd., Timoptol (registered trademark) XE ophthalmic solution 0.5%) was administered as a single dose of 40 μl near the upper portion of the bulbar conjunctiva of rabbit eyeballs retained using a retention can. The administration was performed on both eyes. A rabbit was retained using a retention can. 30 μl of a 10-fold diluted solution (dilution medium: physiological saline) of a 0.4% oxybuprocaine hydrochloride ophthalmic solution (produced by Santen Pharmaceutical Co., Ltd., Benoxil (registered trademark) ophthalmic solution 0.4%) was ophthalmically administered to the retained rabbit, and local anesthesia was applied. After gently stimulating the cornea with the tip of tweezers and confirming the disappearance of the corneal reflex, a lid retractor was attached. In the Example, a device with a 20-μl capillary attached to a 34 G injection needle was used as the bodily fluid-collecting device. After retaining the eyeball by sandwiching the upper bulbar conjunctiva with tweezers, the needle tip of the bodily fluid-collecting device was inserted into the anterior chamber via the cornea by two-step puncture while checking the curved surface of the cornea. […] After deproteinizing each sample, the timolol concentration of the aqueous humor was measured using the LC/MS/MS method.

In the case of CC(C)(C)NC[C@H](O)COc1nsnc1N1CCOCC1 [timolol, timolol maleate], the “timolol concentration of the aqueous humor at the final collection (Method 1, repeated collection from the same eye) compared with one-point collection (Method 2)” value is reported as “equivalent”.
